Test results taken from US8921563B2, “1-[(4-hydroxypiperidin-4-yl)methyl]pyridin-2(1H)-one derivatives, preparation methods and uses thereof” (Institue of Pharmacology and Toxicology Academy of Military …, priority 2010, dated 2014).

What was measured:
5-HT reuptake = molecular target: T1, 5-HT reuptake (Rattus norvegicus, UniProt P31652); assay: 5-HT reuptake inhibition in crudely produced rat synaptosomes ([3H]-5-HT); assay type: biochemical; details: [3H]-5-HT 20.3 nM, read-out: IC50 of 5-HT reuptake inhibition in rat brain
T1 construct: from tissue; host or cells: rat brain (hippocampi and cortex separated; results from cortex), crude synaptosomes
T1 sequence (P31652 whole entry): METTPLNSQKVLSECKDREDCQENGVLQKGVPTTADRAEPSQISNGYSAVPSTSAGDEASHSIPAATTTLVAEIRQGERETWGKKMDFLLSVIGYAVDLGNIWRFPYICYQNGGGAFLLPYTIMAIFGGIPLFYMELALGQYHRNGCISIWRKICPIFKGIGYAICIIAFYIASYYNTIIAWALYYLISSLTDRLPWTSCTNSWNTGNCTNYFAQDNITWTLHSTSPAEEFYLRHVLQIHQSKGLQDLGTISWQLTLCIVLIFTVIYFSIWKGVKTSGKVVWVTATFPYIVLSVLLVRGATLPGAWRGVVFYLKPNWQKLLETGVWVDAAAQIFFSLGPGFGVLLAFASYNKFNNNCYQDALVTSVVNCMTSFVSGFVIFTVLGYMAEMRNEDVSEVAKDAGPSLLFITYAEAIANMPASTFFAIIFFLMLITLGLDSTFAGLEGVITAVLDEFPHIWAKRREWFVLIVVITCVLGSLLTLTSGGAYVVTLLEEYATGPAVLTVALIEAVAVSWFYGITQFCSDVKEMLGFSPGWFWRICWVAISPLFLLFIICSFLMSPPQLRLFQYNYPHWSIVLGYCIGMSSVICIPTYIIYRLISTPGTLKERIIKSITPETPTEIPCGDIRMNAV
Description: (1) Preparation of Synaptosome Protein.
1) Rats were rapidly decapitated and the brains were removed, and hippocampi and cortex were separated on ice.
2) Same brain tissues of 3 rats were combined, to which 10 times volume of ice-bath homogenate was added, and homogenized.
3) The homogenate was centrifuged at 4° C. under 1500 g for 10 minutes and the precipitate was decanted.
4) The supernatant was centrifuged at 4° C. under 12000 g for 15 minutes and the supernatant was decanted, and the precipitate portion was a crudely produced synaptosome.
5) Washed with resuspension buffer twice and centrifuged at 4° C. under 13000 g for 10 minutes and resuspended again.
6) Protein concentration was measured by Lowrry method.
7) The synaptosome was preserved on ice, and the test was completed within 4-6 h.
1) To all tubes, the crudely produced synaptosome protein was added in an amount of 50 μg in sequence.
3) To the test tubes, the drug to be tested in various concentrations in range of 10^−3-10^−10M was added in sequence and reacted for 15 minutes. […]
7) The samples were then applied to 49-type glass fibre filters, vacuum suction filtered, washed 5 times with 10 ml ice-cooled Tris-HCl buffer. […] The radioactive intensity was measured by using LS6500 type liquid scintillation counter.
The calculated inhibition percents were used to calculate IC50 value by using Orgin7.0/GraphPad Prism 4.0 software.

5-HT1A receptor = molecular target: T2, 5-HT1A receptor (Rattus norvegicus, UniProt P19327); assay: Screening: competitive binding test to 5-HT1A receptor using [3H]-8-OH-DPAT, rat hippocampi membrane protein; details: [3H]-8-OH-DPAT 1.28 nM, read-out: Inhibition percent (I %), competitive binding to 5-HT1A receptor
T2 construct: the content of 5-HT1A receptor extracted from rat hippocampi was 5.5 mg/ml; from tissue; host or cells: Wistar rat hippocampus, membrane preparation
T2 sequence (P19327 1-422): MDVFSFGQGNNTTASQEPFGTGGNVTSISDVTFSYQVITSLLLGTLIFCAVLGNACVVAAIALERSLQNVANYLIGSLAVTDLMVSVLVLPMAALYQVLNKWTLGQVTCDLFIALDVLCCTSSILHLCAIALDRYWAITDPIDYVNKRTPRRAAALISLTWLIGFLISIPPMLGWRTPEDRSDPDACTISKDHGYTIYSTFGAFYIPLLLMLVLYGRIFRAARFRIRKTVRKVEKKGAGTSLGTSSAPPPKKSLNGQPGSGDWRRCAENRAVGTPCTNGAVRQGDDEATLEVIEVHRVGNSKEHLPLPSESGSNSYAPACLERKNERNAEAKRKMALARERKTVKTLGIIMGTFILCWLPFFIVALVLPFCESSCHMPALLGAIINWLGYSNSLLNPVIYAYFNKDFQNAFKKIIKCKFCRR
Description: 1.4.1 Screening of YL Series Compounds
(1) Preparation of Membrane Proteins in Rat Hippocampi
Wister rats, 220-260 g, female and male, were sacrificed by decapitation and hippocampis were rapidly separated, weighed and to which homogenized in 10 times volume of Tris-HCl buffer solution (50 mM Tris-HCl, 5 mM MgCl2,1 mM EDTA, 0.5% (WN) BSA, 1 mM PMSF, 3 μg/ml proteinase inhibitor, 0.1% NaN3, 0.32M sucrose, pH 7.4) at 15,000 rpm for 30 s, total 5 times. The homogenate was centrifuged under 1000×g for 10 minutes and the supernatant was then centrifuged under 39000×g for 10 minutes. The precipitate was collected, and resuspended with 10 times volume of Tris-HCl buffer solution (pH 7.4) relative to the original weight, then centrifuged under 39000×g for 10 minutes. The precipitate was washed with the same buffer solution, centrifuged under 39000×g for 10 minutes and the precipitate was suspended with the above buffer solution. After sub-packaged (the whole operation procedures were performed under ice bath), the product was stored at −80° C. The protein concentration was measured by Lowrry method.
1) In the 5-HT1A receptor binding test, tubes are firstly placed under reaction condition of 25° C.
2) To all of the tubes, the receptor proteins extracted from rat hippocampi in an amount of 100 μg were added in sequence.
4) To the test tubes, 30 μl of the compound in corresponding concentrations (used for screening: 10^−5, 10^−7, 10^−9M) was added in sequence.
6) Tris-HCl buffer solution (50 mM Tris-HCl, 1 mM EDTA, 5 mM MgCl2, 0.1 mM PMSF, 0.1% NaN3, pH 7.4) was supplied to all of the tubes to reach a volume of 300 μl.
7) The reaction was performed at 25° C. for 1 h.
8) Then samples were applied to 49-type glass fibre filter, vacuum suction filtered, then washed three times with 2 ml ice-cold Tris-HCl buffer solution (50 mM Tris-HCl buffer solution, 1 mM EDTA, 5 mM MgCl2, 1 mM PMSF, 0.1% NaN3, 3 μg/ml proteinase inhibitor, pH 7.4). […] The radio-activity was measured by a scintillation counter.

- IC50 (5-HT reuptake): 8.51 ± 0.23 nM
- inhibition at 10 µM (5-HT1A receptor; compound 10^-5 mol/L): 100%
- inhibition at 0.1 µM (5-HT1A receptor; compound 10^-7 mol/L): 85%
SMILES: O=c1ccccn1CC1(O)CCN(Cc2ccccc2)CC1 [Compound 1, 1-[(1-benzyl-4-hydroxypiperidin-4-yl)-methyl]-pyridin-2(1H)-one]
